Drawing on ChEMBL document CHEMBL5532742, “Design and Synthesis of the Linezolid Bioisosteres to Resolve the Serotonergic Toxicity Associated with Linezolid” (ACS Med Chem Lett, 2024), this text covers MIC50 for eight compounds.

Holding throughout (format): functional
Common to all, as to details: time 1 weeks

Assay [1] concerns Mycobacterium tuberculosis. Nature of the assay: Antimycobacterial activity against low-grade isoniazid resistant Mycobacterium tuberculosis clinical isolate harboring mutation in inhA promoter region incubated for 1 week by resazurin dye based fluorescence analysis. For orientation: Alamar Blue is a resazurin reagent that responds to reducing activity.
For assay [2], the system named is Mycobacterium tuberculosis. Nature of the assay: Antimycobacterial activity against high-grade isoniazid resistant Mycobacterium tuberculosis clinical isolate harboring katG S315T mutant incubated for 1 week by resazurin dye based fluorescence analysis.
The subject of assay [3] is Mycobacterium tuberculosis. Nature of the assay: Antimycobacterial activity against high-grade isoniazid, rifampicin, ethambutol and pyrazinamide resistant Mycobacterium tuberculosis clinical isolate harboring mutations in inhA, katG, rpoB H526D, eis genes incubated for 1 week by resazurin dye based fluorescence analysis.
The test system of assay [4] is Mycobacterium tuberculosis. Nature of the assay: Antimycobacterial activity against high-grade rifampicin resistant Mycobacterium tuberculosis clinical isolate harboring rpoB S531L mutant incubated for 1 week by resazurin dye based fluorescence analysis.

Values after ≈ are worked out from the molar mass of the structure shown.

Regarding `CO[C@H]1/C=C/O[C@@]2(C)Oc3c(C)c(O)c4c(O)c(c(/C=N/N5CCN(C)CC5)c(O)c4c3C2=O)NC(=O)/C(C)=C\C=C\[C@H](C)[C@H](O)[C@@H](C)[C@@H](O)[C@@H](C)[C@H](OC(C)=O)[C@@H]1C` [RIFAMPIN], the MIC50 (usually an inhibitory concentration at the 50% level, which refers to growth in some studies and to a panel of isolates in others) in assay [1] is less than 0.04 µM; in assay [2], less than 0.04 µM; in assay [3], more than 100 µM; in assay [4], 28.15 µM (≈ 23.2 µg/mL).

Consider `CCS(=O)(=O)NC[C@H]1CN(c2ccc(N3CCOCC3)c(F)c2)C(=O)O1`, for which the MIC50 in assay [1] was found to be 0.14 µM (≈ 0.0542 µg/mL); in assay [2], 0.53 µM (≈ 0.205 µg/mL); in assay [3], 0.92 µM (≈ 0.356 µg/mL); in assay [4], 0.24 µM (≈ 0.093 µg/mL).

On to `O=C1O[C@@H](CNS(=O)(=O)c2cccs2)CN1c1ccc(N2CCOCC2)c(F)c1`, for which the MIC50 is 1.98 µM (≈ 0.874 µg/mL) in assay [1], 4.52 µM (≈ 2 µg/mL) in assay [2], 7.01 µM (≈ 3.09 µg/mL) in assay [3] and 3.32 µM (≈ 1.47 µg/mL) in assay [4].

On to `CS(=O)(=O)NC[C@H]1CN(c2ccc(N3CCOCC3)c(F)c2)C(=O)O1`, for which the MIC50 stood at 0.85 µM (≈ 0.317 µg/mL) in assay [1], 10.35 µM (≈ 3.86 µg/mL) in assay [2], 8.83 µM (≈ 3.3 µg/mL) in assay [3] and 1.82 µM (≈ 0.68 µg/mL) in assay [4].

As to `CC(=O)NC[C@H]1CN(c2ccc(N3CCOCC3)c(F)c2)C(=O)O1` [LINEZOLID], the MIC50 in assay [1] came to 0.12 µM (≈ 0.0405 µg/mL); in assay [2], 0.42 µM (≈ 0.142 µg/mL); in assay [3], 0.81 µM (≈ 0.273 µg/mL); in assay [4], 0.24 µM (≈ 0.081 µg/mL).

Consider `O=C(NC[C@H]1CN(c2ccc(N3CCOCC3)c(F)c2)C(=O)O1)C1CC1`, for which the MIC50 is 0.33 µM (≈ 0.12 µg/mL) in assay [1], 1.53 µM (≈ 0.556 µg/mL) in assay [2], 1.99 µM (≈ 0.723 µg/mL) in assay [3] and 0.82 µM (≈ 0.298 µg/mL) in assay [4].

As to `O=C(NC[C@H]1CN(c2ccc(N3CCOCC3)c(F)c2)C(=O)O1)c1cccs1`, the MIC50 was 1.78 µM (≈ 0.722 µg/mL) in assay [1], 4.01 µM (≈ 1.63 µg/mL) in assay [2], 5.01 µM (≈ 2.03 µg/mL) in assay [3] and 2.78 µM (≈ 1.13 µg/mL) in assay [4].

As to `NNC(=O)c1ccncc1` [ISONIAZID], the MIC50 in assay [1] is 0.98 µM (≈ 0.134 µg/mL); in assay [2], 11.06 µM (≈ 1.52 µg/mL); in assay [3] it was more than 100 µM; in assay [4], 23.03 µM (≈ 3.16 µg/mL).
